# Literature values as cited in US20220054558A1, “COMPOSITIONS COMPRISING BACTERIAL STRAINS” (4D Pharma Research Limited, priority 2018, published 2022).
# Test system: C. difficile
# Conditions: reference [19]
structure (smiles),measurement,value
CCCCC(=O)O [Valeric acid],viability of C. difficile,reduce the viability
